The values below come from patent US7160888B2, “[1,8]naphthyridin-2-ones and related compounds for the treatment of schizophrenia” (Warner Lambert Company LLC, priority 2003, dated 2007).

Data set [1] addresses D2 receptor (Homo sapiens, UniProt P14416). Briefly: [3H]Thymidine uptake assay for D2 intrinsic activity. Type of data set: cell-based. The note with it: Table 1; test compound 1 μM; 1 μM Quinpirole = 100% intrinsic activity.

Chain of D2 receptor (P14416 whole entry): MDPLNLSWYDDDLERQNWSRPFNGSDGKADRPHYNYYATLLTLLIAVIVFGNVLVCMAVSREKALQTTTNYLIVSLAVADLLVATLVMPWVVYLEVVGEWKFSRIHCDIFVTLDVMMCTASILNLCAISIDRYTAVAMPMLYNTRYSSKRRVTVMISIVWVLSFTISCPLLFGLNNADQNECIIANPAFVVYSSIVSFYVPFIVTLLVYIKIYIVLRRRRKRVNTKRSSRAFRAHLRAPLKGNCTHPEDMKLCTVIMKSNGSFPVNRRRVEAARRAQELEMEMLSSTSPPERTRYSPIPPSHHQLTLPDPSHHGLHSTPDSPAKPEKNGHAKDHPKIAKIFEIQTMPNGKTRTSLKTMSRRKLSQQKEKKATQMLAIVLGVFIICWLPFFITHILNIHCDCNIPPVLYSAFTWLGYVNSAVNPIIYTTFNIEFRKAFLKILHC

What is called melting point is the temperature of the solid-liquid transition. Consider `CCOc1cccc(N2CCN(CCCCOc3ccc4c(n3)NC(=O)CC4)CC2)c1Cl` [Example A21, 7-{4-[4-(2-Chloro-3-ethoxy-phenyl)-piperazin-1-yl]-butoxy}-3,4-dihydro-1H-[1,8]naphthyridin-2-one], for which the melting point lay within 110 to 112 °C.

In general, Emax refers to the maximal effect, on the per cent scale that the assay sets. `CC(=O)c1c(Cl)cccc1N1CCN(CCCCOc2ccc3c(n2)NC(=O)CC3)CC1` [Example A28, 7-{4-[4-(2-Acetyl-3-chloro-phenyl)-piperazin-1-yl]-butoxy}-3,4-dihydro-1H-[1,8]naphthyridin-2-one]: the melting point worked out at 115 °C. This compound also displayed an Emax at 1 µM in data set [1] of 2%.

`CC(=O)c1cccc(N2CCN(CCCCOc3ccc4c(n3)NC(=O)CC4)CC2)c1Cl` [Example A32, 7-{4-[4-(3-Acetyl-2-chloro-phenyl)-piperazin-1-yl]-butoxy}-3,4-dihydro-1H-[1,8]naphthyridin-2-one] gave a melting point of 138 to 139 °C. Further, the maximal effect (Emax) at 1 µM in data set [1] is 7%.

`O=C1CCc2ccc(OCCCCN3CCN(c4cccc5c4CCCC5=O)CC3)nc2N1` [Example A58, 7-{4-[4-(5-Oxo-5,6,7,8-tetrahydro-naphthalen-1-yl)-piperazin-1-yl]-butoxy}-3,4-dihydro-1H-[1,8]naphthyridin-2-one] gave a melting point of 169 to 170 °C. This compound yielded a maximal response (Emax) at 1 µM in data set [1] of 48%.

Compound `CC(=O)c1cccc(N2CCN(CCCCOc3ccc4ccc(=O)[nH]c4n3)CC2)c1Cl` [Example B6, 7-{4-[4-(3-Acetyl-2-chloro-phenyl)-piperazin-1-yl]-butoxy}-1H-[1,8]naphthyridin-2-one] registered a melting point of 108 to 110 °C. In data set [1], this compound displayed an Emax at 1 µM of 16%.

Consider `O=C1CCCc2c1cccc2N1CCN(CCCCOc2ccc3ccc(=O)[nH]c3n2)CC1` [Example B42, 7-{4-[4-(5-Oxo-5,6,7,8-tetrahydro-naphthalen-1-yl)-piperazin-1-yl]-butoxy}-1H-[1,8]naphthyridin-2-one], for which the melting point is 158 to 160 °C. Moreover, the Emax at 1 µM in data set [1] was 37%.

In the case of `O=c1ccc2ccc(CCCCCN3CCN(c4cccc(Cl)c4Cl)CC3)nc2[nH]1` [Example C20, 7-{5-[4-(2,3-Dichloro-phenyl)-piperazin-1-yl]-pentyl}-1H-[1,8]naphthyridin-2-one], the melting point lay within 176 to 178 °C.

For `Cc1cc(=O)[nH]c2nc(OCCCCN3CCN(c4cccc(Cl)c4Cl)CC3)ccc12` [Example D1, 7-{4-[4-(2,3-Dichloro-phenyl)-piperazin-1-yl]-butoxy}-4-methyl-1H-[1,8]naphthyridin-2-one], the melting point was 181 to 182 °C. In addition, in data set [1], the Emax at 1 µM stood at 31%.

`Cc1cc(=O)[nH]c2nc(CCCCCN3CCN(c4cccc(Cl)c4Cl)CC3)ccc12` [Example D3, 7-{5-[4-(2,3-Dichloro-phenyl)-piperazin-1-yl]-pentyl}-4-methyl-1H-[1,8]naphthyridin-2-one] came in with a melting point of 195 to 196 °C. The compound further had a maximal response (Emax) at 1 µM in data set [1] of 15%.

The compound `Cc1cc2ccc(CCCCCN3CCN(c4cccc(Cl)c4Cl)CC3)nc2[nH]c1=O` [Example D5, 7-{5-[4-(2,3-Dichloro-phenyl)-piperazin-1-yl]-pentyl}-3-methyl-1H-[1,8]naphthyridin-2-one] yielded a melting point of 157 to 158 °C. This compound showed an Emax at 1 µM in data set [1] of 15%.

For `Cc1c(C)c2ccc(OCCCCN3CCN(c4cccc(Cl)c4Cl)CC3)nc2[nH]c1=O` [Example D7, 7-{4-[4-(2,3-Dichloro-phenyl)-piperazin-1-yl]-butoxy}-3,4-dimethyl-1H-[1,8]naphthyridin-2-one], the melting point lay within 161 to 163 °C. In data set [1], this compound yielded an Emax at 1 µM of 15%.

Compound `Cc1c(C)c2ccc(CCCCCN3CCN(c4cccc(Cl)c4Cl)CC3)nc2[nH]c1=O` [Example D8, 7-{5-[4-(2,3-Dichloro-phenyl)-piperazin-1-yl]-pentyl}-3,4-dimethyl-1H-[1,8]naphthyridin-2-one] yielded a melting point of 202 to 203 °C. The same compound yielded a maximal effect (Emax) at 1 µM in data set [1] of 8%.

The compound `Cc1cc2c(nc1OCCCCN1CCN(c3cccc(Cl)c3Cl)CC1)NC(=O)CC2` [Example E1, 7-{4-[4-(2,3-Dichloro-phenyl)-piperazin-1-yl]-butoxy}-6-methyl-3,4-dihydro-1H-[1,8]naphthyridin-2-one] came in with a melting point of 138 to 139 °C. In data set [1], this compound had a maximal response (Emax) at 1 µM of 32%.

With `Cc1cc2c(nc1OCCCCN1CCN(c3cccc4ccccc34)CC1)NC(=O)CC2` [Example E2, 6-Methyl-7-[4-(4-naphthalen-1-yl-piperazin-1-yl)-butoxy]-3,4-dihydro-1H-[1,8]naphthyridin-2-one], the melting point lay in the range of 76 to 78 °C. The compound further showed an Emax at 1 µM in data set [1] of 22%.

Take `O=C1NCc2ccc(OCCCCN3CCN(c4cccc(Cl)c4Cl)CC3)nc2N1` [Example F1, 7-{4-[4-(2,3-Dichloro-phenyl)-piperazin-1-yl]-butoxy}-3,4-dihydro-1H-pyrido[2,3-d]pyrimidin-2-one]: the melting point was 166 to 167 °C. This compound also came in with a maximal effect (Emax) at 1 µM in data set [1] of 8%.

`O=C1NCc2ccc(OCCCCN3CCN(c4cccc5ccccc45)CC3)nc2N1` [Example F2, 7-[4-(4-Naphthalen-1-yl-piperazin-1-yl)-butoxy]-3,4-dihydro-1H-pyrido[2,3-d]pyrimidin-2-one] gave a melting point of 136 to 138 °C. In data set [1], this compound gave an Emax at 1 µM of 30%.

As for `O=c1ccc2cnc(OCCCCN3CCN(c4cccc5ccccc45)CC3)cc2[nH]1` [Example I16, 7-[4-(4-Naphthalen-1-yl-piperazin-1-yl)-butoxy]-1H-[1,6]naphthyridin-2-one], in data set [1], the Emax at 1 µM was determined as 27%.

`O=c1ccc2cnc(OCCCCN3CCN(c4cccc5ccc(F)cc45)CC3)cc2[nH]1` [Example I17, 7-{4-[4-(7-Fluoro-naphthalen-1-yl)-piperazin-1-yl]-butoxy}-1H-[1,6]naphthyridin-2-one]: the Emax at 1 µM in data set [1] stood at 32%.

In data set [1], `O=c1ccc2cnc(NCCCCN3CCN(c4cccc(Cl)c4Cl)CC3)cc2[nH]1` [Example I18, 7-{4-[4-(2,3-Dichloro-phenyl)-piperazin-1-yl]-butylamino}-1H-[1,6]naphthyridin-2-one] had an Emax at 1 µM of 54%.

Take `CC1(C)OC(=O)Nc2cc(CCCCCN3CCN(c4cccc(Cl)c4Cl)CC3)ncc21` [Example I19, 7-{5-[4-(2,3-Dichloro-phenyl)-piperazin-1-yl]-pentyl}-4,4-dimethyl-1,4-dihydro-pyrido[4,3-d][1,3]oxazin-2-one]: in data set [1], the Emax at 1 µM stood at 22%.
